This assay addresses T1, PkPSD proenzyme; MBP-His6-Δ34PkPSD(S308A) (Plasmodium knowlesi, UniProt B3L2V1, S308A).
T1 construct: gene PKH_072580
Briefly: biochemical.

T1 sequence (B3L2V1 35-354 S308A): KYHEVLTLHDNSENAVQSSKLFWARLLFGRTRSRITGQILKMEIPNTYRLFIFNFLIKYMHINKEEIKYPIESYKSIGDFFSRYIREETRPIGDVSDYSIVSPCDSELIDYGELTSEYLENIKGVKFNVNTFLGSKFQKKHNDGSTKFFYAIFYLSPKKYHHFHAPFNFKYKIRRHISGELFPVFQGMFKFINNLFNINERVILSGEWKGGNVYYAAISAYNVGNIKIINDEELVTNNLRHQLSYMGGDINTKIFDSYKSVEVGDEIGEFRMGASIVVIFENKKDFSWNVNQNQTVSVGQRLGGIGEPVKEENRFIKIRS

In turn, `CCCCCCCC/C=C\CCCCCCCC(=O)OC[C@H](COP(=O)(O)OCC(O)CO)OC(=O)CCCCCCC/C=C\CCCCCCCC` (some centres unmarked) [DOPG] showed a Kd of 66.4 nM.
To `CCCCCCCC/C=C\CCCCCCCC(=O)OC[C@H](COP(=O)(O)OC[C@H](N)C(=O)O)OC(=O)CCCCCCC/C=C\CCCCCCCC` [DOPS] belongs 80.4 nM.

The Kd is the free concentration of one partner at which half of the binding sites on the other are occupied at equilibrium, for simple one-to-one binding. Low values mean a tighter complex, high ones a looser complex.

The record behind these values is PMC10172927, “Maturation of the malarial phosphatidylserine decarboxylase is mediated by high affinity binding to anionic phospholipids” (The Journal of Biological Chemistry, 2023).
